Entries after “also recorded” stand apart in the source; their conditions may differ.
Tested on: U251 tumors
Experiment: SELPi treatment in human U251 GB model
Assay type: in vivo, SCID mice
Method: SELPi (0.8 mg/ml) was dissolved in DMSO 0.01%), polyethyleneglycol (93.2 mg/ml), Tween-80 (14.8 mg/ml), and DDW. Mice were treated intravenously (IV) twice a week with PBS, 16 mg/kg SELPi or vehicle (0.01% DMSO, 93.2 mg/ml polyethyleneglycol and 14.8 mg/ml Tween-80 in DDW). Tumor development was followed by monitoring the fluorescence intensity using the CRI Maestro™ imaging system.
Intravital imaging. The CRI Maestro™ non-invasive fluorescence imaging system was used to follow tumor progression in mice bearing mCherry- or iRFP- labeled U251 tumors. Mice were anesthetized by ketamine (150 mg/kg) and xylazine (12 mg/kg) injected IP, and were placed inside the imaging system. Multispectral image-cubes were used through 550-800 nm spectral range in 10 nm steps using excitation (575-605 nm) and emission (645 nm longpass) filter set. Mice autofluorescence and background signals were eliminated by spectral analysis and by applying a linear unmixing algorithm.

COc1ccc(C2CC(c3c(O)cc(C)oc3=O)=NCCS2)c(OC)c1 (centres unmarked) [SELPi, 3-[7-(2,4-Dimethoxyphenyl)-2,3,6,7-tetrahydro-1,4-thiazepin-5-yl]-4-hydroxy-6-methyl-2H-pyran-2-one]
blood vessel density (CD31) (U251 tumors): reduction | invasion of GB cells (H&E) (U251 tumors): reduced | microglia activation (Iba1) (U251 tumors): reduction | proliferation of GB cells (Ki-67) (U251 tumors): reduced | tumor growth (fluorescence signal, CRI-Maestro) (iRFP-labeled U251, 16 mg/kg SELPi IV twice a week): reduced the fluorescence signal; also recorded: delayed tumor growth

Reference: US20230303712A1, “METHODS OF TREATING GLIOBLASTOMA” (Ramot at Tel-Aviv University Ltd., priority 2020, published 2023)
